≈ marks a conversion by molar mass, not a printed value.
Tests used:
Format in all cases: cell-based
[1] = Cytotoxicity against HepG2 cells; details: human
[2] = Cytotoxicity against 3T3 cells; details: mouse
[3] = test system: P. falciparum 3D7 (chloroquine-sensitive); experiment: Anti-malarial activity, P. falciparum 3D7 culture, 72 hour, DNA content by flow cytometry; details: Plasmodium falciparum, 3D7, 72 h, synchronized ring-stage parasites
Description: Numerous compounds were screened in cultures of the malaria parasite P. falciparum 3D7 (chloroquine-sensitive) and DD2 (chloroquine-resistant). The compounds were also screened for toxixcity against 3T3 cells, HepG2 cells, and in a hemolysis assay. In brief, P. falciparum parasites were cultured in RPMI 1640 (Invitrogen) supplemented with Albumax II (Invitrogen). For synchronization, schizont stage parasites were magnet purified using a SuperMACS™ II Cell Separation Unit (Miltenyi Biotech). For IC50 determinations, synchronized ring-stage parasites were plated at 0.5% parasitemia and 8% hematocrit in 96-well plates at a total volume of 50 μL. Serial dilutions of 2× concentration of the respective compound, ranging from 2.5 μM to 20 nM, were added to the wells to bring the total volume up to 100 μL and 4% hematocrit. Compounds were assayed for a 72 hour period, after which the cultures were fixed with a solution of 4% paraformaldehyde and 0.08% glutaraldhyde in PBS. The cells were then permeabilized with 0.25% Triton X-100, and SYTOX Green Nucleic Acid Stain (Invitrogen) in PBS was added to a final concentration of 5 μM. DNA content, as an indicator of parasitemia, was analyzed on an Accuri C6 Flow Cytometer with C-Sampler. IC50 curves were generated using GraphPad Prism (GraphPad Software).

[4] = in vitro
[5] = HepG2 cells, read-out: Cytotoxicity HepG2 EC50
[6] = 3T3 cells, read-out: Cytotoxicity 3T3 EC50

SMILES	IC50 [3] [µM]	EC50 [4] [µg/mL]	EC50 [1, 5] [µM]	EC50 [2, 6] [µM]	EC50 [1] [µM]	EC50 [2] [µM]	EC50 ([4]; hemolysis assay, read-out: Cytotoxicity Hemolysis EC50) [µg/mL]
N=C(N)NCCCCC(=O)Nc1cc(C(F)(F)F)cc(NC(=O)c2cc(C(=O)Nc3cc(C(F)(F)F)cc(NC(=O)CCCCNC(=N)N)c3SCCNC(=O)CN)ncn2)c1SCCNC(=O)CN [Compound 160]	0.925	250 (≈ 242 µM)	224	66	–	–	–
CC1(C)c2cc(-c3cccc(CCNC(=N)N)c3)ccc2-c2ccc(-c3cccc(CCNC(=N)N)c3)cc21 [Compound 284]	> 0.1	2 (≈ 3.87 µM)	28	6	–	–	–
CN1CCN(c2ccc(-c3cc(-c4ccc(N5CCN(C)CC5)cc4)ncn3)cc2)CC1 [Compound 278]	> 0.1	–	> 1000	> 1000	–	–	–
COc1cc(OC)c(C(=O)Nc2cc(C(F)(F)F)cc(NC(=O)c3cccc(C#N)c3)c2SCCN)cc1C(=O)Nc1cc(C(F)(F)F)cc(NC(=O)c2cccc(C#N)c2)c1SCCN [Compound 300]	–	–	848	848	–	–	–
O=S(=O)(c1ccc(Oc2cc(NC3CCNCC3)cc(C(F)(F)F)c2)cc1)c1ccc(Oc2cc(NC3CCNCC3)cc(C(F)(F)F)c2)cc1 [Compound 163]	–	–	98	60	–	–	–
CN(C)C1CCN(c2ccc(NC(=O)c3cccc(C(=O)Nc4ccc(N5CCC(N(C)C)CC5)cc4)n3)cc2)CC1 [Compound 216]	> 0.1	> 1000	> 1000	> 1000	–	–	–
COc1ccc(C(=O)Nc2cc(C(F)(F)F)cc(NC(=O)c3cc(C(=O)Nc4cc(C(F)(F)F)cc(NC(=O)c5ccc(OC)c(OC)c5)c4SCCN)ncn3)c2SCCN)cc1OC [Compound 312]	–	6 (≈ 6.23 µM)	> 1000	> 10000	–	–	–
CCn1c2ccc(N3CCN(C(=N)N)CC3)cc2c2cc(N3CCN(C(=N)N)CC3)ccc21 [Compound 294]	> 0.1	–	> 1000	> 1000	–	–	–
N=C(N)NCCc1ccc(C(F)(F)F)cc1NC(=O)c1cc(C(=O)Nc2cc(C(F)(F)F)ccc2CCNC(=N)N)ncn1 [Compound 176]	0.629	314 (≈ 503 µM)	608	523	–	–	–
CN1CCN(c2ccc(NC(=O)c3cc(C(=O)Nc4ccc(N5CCN(C)CC5)cc4)ncn3)cc2)CC1 [Compound 212]	> 0.1	–	> 1000	> 1000	–	–	–
CN(C)C1CCN(c2ccc(NC(=O)c3ccnc(C(=O)Nc4ccc(N5CCC(N(C)C)CC5)cc4)c3)cc2)CC1 [Compound 217]	> 0.1	> 1000	> 1000	> 1000	–	–	–
O=C(Nc1ccc(OC2CCNCC2)nc1)c1cc(C(=O)Nc2ccc(OC3CCNCC3)nc2)ncn1 [Compound 214]	> 0.1	> 1000	> 1000	> 1000	–	–	–
O=C(Nc1ccc(O[C@@H]2CCNC2)nc1)c1cc(C(=O)Nc2ccc(O[C@@H]3CCNC3)nc2)ncn1 [Compound 215]	> 0.1	> 1000	> 1000	> 1000	–	–	–
NCCCc1ccc(-c2ccc(CCCN)cc2)cc1 [Compound 318]	> 0.1	> 1000	> 1000	624	–	–	–
N=C(N)N1CC=C(c2ccc(NC(=O)c3cc(C(=O)Nc4ccc(C5=CCN(C(=N)N)CC5)cc4)ncn3)cc2)CC1 [Compound 219]	–	–	> 1000	919	–	–	–
NCCSc1c(NC(=O)c2cc(C(=O)Nc3cc(C(F)(F)F)cc(NC(=O)c4ccc(Cl)cc4Cl)c3SCCN)ncn2)cc(C(F)(F)F)cc1NC(=O)c1ccc(Cl)cc1Cl [Compound 314]	–	–	827	> 1000	–	–	–
NCCSc1c(N)cc(C(F)(F)F)cc1NC(=O)c1cc(C(=O)Nc2cc(C(F)(F)F)cc(NC(=O)c3cccnc3)c2SCCN)ncn1 [Compound 316]	–	22 (≈ 29.7 µM)	41	33	–	–	–
N=C(N)NCCCn1c2ccc(C3=CCNCC3)cc2c2cc(C3=CCNCC3)ccc21 [Compound 290]	> 0.1	–	–	–	> 1000	> 1000	–
COc1ccc(C(=O)Nc2cc(C(F)(F)F)cc(NC(=O)c3cc(C(=O)Nc4cc(C(F)(F)F)cc(N)c4SCCN)ncn3)c2SCCN)cc1OC [Compound 313]	–	14 (≈ 17.5 µM)	545	92	–	–	–
N=C(N)NCCCCC(=O)Nc1cccc(NC(=O)c2cc(C(=O)Nc3cccc(NC(=O)CCCCNC(=N)N)c3SCCN)ncn2)c1SCCN [Compound 161]	0.939	–	676	697	–	–	–
NCCCn1c2ccc(C3=CCNCC3)cc2c2cc(C3=CCNCC3)ccc21 [Compound 288]	–	–	–	–	> 1000	> 1000	> 1000

Now from value to compound, other results behind:

IC50 [3] [µM]	EC50 [4] [µg/mL]	SMILES	EC50 [1, 5] [µM]	EC50 [2, 6] [µM]	EC50 [1] [µM]	EC50 [2] [µM]	EC50 ([4]; hemolysis assay, read-out: Cytotoxicity Hemolysis EC50) [µg/mL]
0.182	32 (≈ 68.3 µM)	NCCSc1ccc(NC(=O)c2cc(C(=O)Nc3ccc(SCCN)cc3)ncn2)cc1 [Compound 192]	> 1000	953	–	–	–
0.003	24 (≈ 59 µM)	N=C(N)NCCc1ccc(-c2ccc(-c3ccc(CCNC(=N)N)cc3)s2)cc1 [Compound 248]	54	50	–	–	–
0.0883	0.8 (≈ 1.43 µM)	NCCCOc1cccc(-n2cc(-c3ccc4ccc(-c5cn(-c6cccc(OCCCN)c6)nn5)cc4c3)nn2)c1 [Compound 152]	502	406	–	–	–
0.137	4 (≈ 6.62 µM)	NCCSc1ccc(NC(=O)c2cc(C(=O)Nc3ccc(SCCN)c(C(F)(F)F)c3)ncn2)cc1C(F)(F)F [Compound 188]	9	1	–	–	–
0.551	> 1000	N=C(N)NCCSc1nc(-c2cccc(CCNC(=N)N)c2)cc(-c2cccc(CCNC(=N)N)c2)n1 [Compound 222]	> 1000	764	–	–	–
0.07	176 (≈ 316 µM)	O=C(Nc1ccc(O[C@@H]2CCNC2)c(Cl)c1)c1cc(C(=O)Nc2ccc(O[C@@H]3CCNC3)c(Cl)c2)ncn1 [Compound 205]	307	40	–	–	–
0.084	81 (≈ 89.7 µM)	COc1ccc(C(=O)Nc2cc(C(F)(F)F)cc(NC(=O)c3cc(C(=O)Nc4cc(C(F)(F)F)cc(NC(=O)c5ccc(OC)cc5)c4SCCN)ncn3)c2SCCN)cc1 [Compound 310]	884	> 1000	–	–	–
< 0.001	48 (≈ 98.6 µM)	O=C(Nc1ccc(N2CCNCC2)cc1)c1cc(C(=O)Nc2ccc(N3CCNCC3)cc2)ncn1 [Compound 201]	234	137	–	–	–
0.458	> 1000	NCCc1cccc(NC(=O)c2cccc(C(=O)Nc3cccc(CCN)c3)n2)c1 [Compound 191]	> 1000	> 1000	–	–	–
0.43	–	N=C(N)NCCCCCC(=O)Nc1cccc(-c2cc(-c3ccc(NC(=O)CCCCNC(=N)N)cc3)nc(-c3ccccc3)n2)c1 [Compound 139]	23	36	–	–	–
0.029	< 1	COc1cc(SCCN)c(C(F)(F)F)cc1NC(=O)c1cc(C(=O)Nc2cc(C(F)(F)F)c(SCCN)cc2OC)ncn1 [Compound 301]	778	716	–	–	–
0.058	545 (≈ 1120 µM)	N=C(N)N1CCN(c2ccc(-c3cccc(-c4ccc(N5CCN(C(=N)N)CC5)nc4)c3)cn2)CC1 [Compound 258]	305	165	–	–	–
0.177	107 (≈ 117 µM)	N#Cc1cccc(C(=O)Nc2cc(C(F)(F)F)cc(NC(=O)c3cc(C(=O)Nc4cc(C(F)(F)F)cc(NC(=O)c5cccc(C#N)c5)c4O[C@@H]4CCNC4)ncn3)c2O[C@@H]2CCNC2)c1 [Compound 186]	> 1000	63	–	–	–
0.139	12 (≈ 24.8 µM)	O=C(Nc1ccc(C2CCNCC2)cc1)c1cc(C(=O)Nc2ccc(C3CCNCC3)cc2)ncn1 [Compound 208]	183	122	–	–	–
0.079	–	COc1cccc(C(=O)Nc2cc(C(F)(F)F)cc(NC(=O)c3cc(C(=O)Nc4cc(C(F)(F)F)cc(NC(=O)c5cccc(OC)c5)c4SCCN)ncn3)c2SCCN)c1 [Compound 309]	> 1000	> 1000	–	–	–
0.129	4 (≈ 4.62 µM)	COc1cc(SCCNC(=N)N)c(C(F)(F)F)cc1NC(=O)c1cc(C(=O)Nc2cc(C(F)(F)F)c(SCCNC(=N)N)cc2OC)nc(SCCNC(=N)N)n1 [Compound 184]	> 1000	478	–	–	–
0.078	223 (≈ 254 µM)	NCCSc1c(NC(=O)c2cccc(F)c2)cc(C(F)(F)F)cc1NC(=O)c1cc(C(=O)Nc2cc(C(F)(F)F)cc(NC(=O)c3cccc(F)c3)c2SCCN)ncn1 [Compound 305]	904	898	–	–	–
0.187	> 1000	N=C(N)NCCC#Cc1cncc(-c2cccc(-c3cncc(C#CCCNC(=N)N)c3)c2)c1 [Compound 137]	422	272	–	–	–
0.333	4 (≈ 5.34 µM)	COc1cc(SCCNC(=N)N)c(C(F)(F)F)cc1NC(=O)c1cc(C(=O)Nc2cc(C(F)(F)F)c(SCCNC(=N)N)cc2OC)ncn1 [Compound 302]	> 1000	687	–	–	–
0.088	–	N=C(N)N1CCN(c2ccc3sc4ccc(N5CCN(C(=N)N)CC5)cc4c3c2)CC1 [Compound 292]	> 1000	710	–	–	–

— patent US20150094294A1, “COMPOUNDS AND METHODS FOR TREATING MALARIA” (Cellceutix Corporation, priority 2012, published 2015)
